In US7538072B2, “Stem/leaf desiccant” (Sumitomo Chemical Company, Limited, priority 2001, dated 2009):

How the values were obtained:
[1] = test system: potato plants; experiment: Field test of desiccant effect on potato plants (foliar spray before harvest); assay type: in vivo; settings: application amount 10 g/ha; emulsifiable concentrate diluted with water containing 1% (v/v) crop oil concentrate, sprayed at the time of foliage turning yellow; examined 14 day after treatment; average of 3 sections
Excerpt: Seed potatoes were planted on a field and grown. At the time of the foliage turning yellow, 2.5 parts of each of compounds a-5 and a-6, 10 parts of Sorpol 3890 (Toho Chemical Industry Co., Ltd.), and 87.5 parts of SOLVESSO 200 (Exxon Mobile Chemical Company) were well mixed to give an emulsifiable concentrate for each compound, diluted at a prescribed dose with water containing 1% (v/v) crop oil concentrate (COC), and the dilution was uniformly sprayed to the plants. One section of the treated field are 2.1×15.2 m in area, and the potato plants on 14 day after the treatment were examined for the desiccant effect. In the table, the desiccation effect was evaluated with following criteria.
1: The desiccated area of foliage is 0 to 29%
2: The desiccated area of foliage is 30 to 69%
3: The desiccated area of foliage is 70 to 89%
4: The desiccated area of foliage is 90 to 99%
5: The desiccated area of foliage is 100%
The treatment was done in 3 sections, the result was indicated with an average of the 3 sections.

melting point [°C] | Compound | Desiccation effect [1]
– | COC(=O)COc1ccccc1Oc1cc(-n2c(=O)cc(C(F)(F)F)n(C)c2=O)c(F)cc1Cl [Compound a-5, methyl [2-{2-chloro-4-fluoro-5-[3-methyl-2,6-dioxo-4-(trifluoromethyl)-1,2,3,6-tetrahydropyrimidin-1-yl]phenoxy}phenoxy]acetate] | 5 (The desiccated area of foliage is 100%)
52.2 | COC(=O)COc1ncccc1Oc1cc(-n2c(=O)cc(C(F)(F)F)n(C)c2=O)c(F)cc1Cl [Compound a-6, methyl [3-{2-chloro-4-fluoro-5-[3-methyl-2,6-dioxo-4-(trifluoromethyl)-1,2,3,6-tetrahydropyrimidin-1-yl]phenoxy}-2-pyridyloxy]acetate] | 5 (The desiccated area of foliage is 100%)
